Each compound was assayed against T1, N-terminally GST-tagged human full length recombinant Mps-1 kinase (Homo sapiens, UniProt P33981) (assay: Mps-1 kinase assay (TR-FRET)). Settings: Mps1 IC50 [nM], 10 μM ATP, 1 μM peptide substrate, 60 min at 22° C.
T1 construct: N-terminally GST-tagged human full length recombinant Mps-1 kinase; purchased Invitrogen, Karslruhe, Germany PV4071
T1 sequence (P33981 1-857): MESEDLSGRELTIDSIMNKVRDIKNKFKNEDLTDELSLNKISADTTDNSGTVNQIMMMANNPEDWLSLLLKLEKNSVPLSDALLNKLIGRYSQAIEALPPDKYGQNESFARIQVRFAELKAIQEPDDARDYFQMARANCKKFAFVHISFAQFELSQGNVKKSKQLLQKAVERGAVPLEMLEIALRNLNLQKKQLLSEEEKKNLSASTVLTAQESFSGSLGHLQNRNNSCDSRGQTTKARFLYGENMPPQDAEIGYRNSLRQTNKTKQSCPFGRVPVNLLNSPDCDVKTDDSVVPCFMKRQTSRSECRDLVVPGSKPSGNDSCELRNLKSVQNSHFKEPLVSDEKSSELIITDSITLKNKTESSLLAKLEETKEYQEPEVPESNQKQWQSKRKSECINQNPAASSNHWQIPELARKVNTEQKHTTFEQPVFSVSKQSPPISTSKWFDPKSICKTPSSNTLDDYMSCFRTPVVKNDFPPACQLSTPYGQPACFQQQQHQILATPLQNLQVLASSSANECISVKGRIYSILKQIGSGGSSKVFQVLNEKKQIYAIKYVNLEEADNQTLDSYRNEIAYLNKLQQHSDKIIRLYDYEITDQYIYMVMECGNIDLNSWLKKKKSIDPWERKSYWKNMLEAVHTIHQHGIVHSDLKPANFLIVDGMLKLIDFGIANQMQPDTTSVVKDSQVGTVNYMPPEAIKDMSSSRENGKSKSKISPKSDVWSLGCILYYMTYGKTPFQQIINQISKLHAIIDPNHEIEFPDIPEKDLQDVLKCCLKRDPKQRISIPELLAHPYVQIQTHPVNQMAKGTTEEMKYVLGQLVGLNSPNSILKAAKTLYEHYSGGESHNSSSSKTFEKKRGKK
Format: biochemical
Method in brief: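 GST-Mps-1 (full length, N-term tag) ~1 nM final, linear-range adjusted per lot; biotinylated peptide substrate. Detection: Eu-anti-pSer/Thr donor → SA-XLent acceptor TR-FRET, 1 h, 22° C. Inhibition of kinase activity.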

Row | Compound | IC50
1 | Cc1ccc(F)cc1Oc1cc(NCCN2CCOCC2)c2ncc(-c3ccc(C(=O)NC4CC4)c(C)c3)n2n1 [Example 537, N-cyclopropyl-4-[6-(5-fluoro-2-methylphenoxy)-8-{[2-(morpholin-4-yl)ethyl]amino}imidazo[1,2-b]pyridazin-3-yl]-2-methylbenzamide] | 0.2 nM
2 | Cc1ccccc1Oc1cc(NCCC(F)(F)F)c2ncc(-c3ccc(C(=O)NC4CC4)c(C)c3)n2n1 [Example 474, N-cyclopropyl-2-methyl-4-{6-(2-methylphenoxy)-8-[(3,3,3-trifluoro-propyl)amino]imidazo [1,2-b]pyridazin-3-yl} benzamide] | 0.3 nM
3 | Cc1c[nH]c(Sc2cc(NCC(C)(C)O)c3ncc(-c4ccc(C(=O)NC5CC5)c(C)c4)n3n2)n1 [Example 317, N-cyclopropyl-4-{8-[(2-hydroxy-2-methylpropyl)amino]-6-[(4-methyl-1H-imidazol-2-yl)sulfanyl]imidazo[1,2-b]pyridazin-3-yl}-2-methylbenzamide] | 7.4 nM
4 | Cc1cc(-c2cnc3c(NCC(C)(C)O)cc(-c4cccc(CO)c4)nn23)ccc1C(=O)NC1CC1 [Example 153, N-cyclopropyl-4-{6-[3-(hydroxymethyl)phenyl]-8-[(2-hydroxy-2-methylpropyl)amino]imidazo[1,2-b]pyridazin-3-yl}-2-methylbenzamide] | 3.6 nM
5 | CNc1ccccc1Oc1cc(NC)c2ncc(-c3ccc(C(=O)NC4CC4)c(C)c3)n2n1 [Example 531, N-cyclopropyl-2-methyl-4-{8-(methylamino)-6-[2-(methylamino)phenoxy]imidazo[1,2-b]pyridazin-3-yl} benzamide] | 14.8 nM
6 | Cc1cc(-c2cnc3c(NCC(C)(C)O)cc(Oc4ccc5ncccc5c4)nn23)ccc1C(=O)NC1CC1 [Example 168, N-cyclopropyl-4-{8-[(2-hydroxy-2-methylpropyl)amino]-6-(quinolin-6-yloxy)imidazo[1,2-b]pyridazin-3-yl}-2-methylbenzamide] | 0.3 nM
7 | Cc1cc(-c2cnc3c(NCC(C)(C)O)cc(Oc4ccc(F)c(Cl)c4)nn23)ccc1C(=O)NC1CC1 [Example 91, 4-{6-(3-Chloro-4-fluorophenoxy)-8-[(2-hydroxy-2-methylpropyl)amino]imidazo[1,2-b]pyridazin-3-yl}-N-cyclopropyl-2-methylbenzamide] | 0.5 nM
8 | Cc1cc(F)cc(Nc2cc(NCC(C)(C)O)c3ncc(-c4ccc(C(=O)NC5CC5)c(C)c4)n3n2)c1 [Example 394, N-cyclopropyl-4-{6-[(3-fluoro-5-methylphenyl)amino]-8-[(2-hydroxy-2-methylpropyl)amino]imidazo[1,2-b]pyridazin-3-yl}-2-methylbenzamide] | 0.2 nM
9 | Cc1cc(-c2cnc3c(NCC(C)(C)O)cc(-c4cc[nH]n4)nn23)ccc1C(=O)NC1CC1 [Example 160, N-cyclopropyl-4-{8-[(2-hydroxy-2-methylpropyl)amino]-6-(1H-pyrazol-3-yl)imidazo[1,2-b]pyridazin-3-yl}-2-methylbenzamide] | 13.6 nM
10 | CNc1cc(Oc2cncc(F)c2)nn2c(-c3ccc(C(=O)NC4CC4)c(C)c3)cnc12 [Example 533, N-cyclopropyl-4-{6-[(5-fluoropyridin-3-yl)oxy]-8-(methylamino)imidazo [1,2-b]pyridazin-3-yl}-2-methylbenzamide] | 1.2 nM
11 | Cc1cc(-c2cnc3c(NCCC(F)(F)F)cc(Oc4ccc(OC(C)C)cc4)nn23)ccc1C(=O)NC1CC1 [Example 257, N-cyclopropyl-4-{6-(4-isopropoxyphenoxy)-8-[(3,3,3-trifluoropropyl)amino]imidazo[1,2-b]pyridazin-3-yl}-2-methylbenzamide] | 0.4 nM
12 | CC(C)CNc1cc(-c2cccc(C(=O)NC3CC3)c2)nn2c(-c3ccc(C(=O)NC4CC4)cc3)cnc12 [Example 135, N-cyclopropyl-3-{3-[4-(cyclopropylcarbamoyl)phenyl]-8-[(2-methylpropyl)amino]imidazo[1,2-b]pyridazin-6-yl}benzamide] | < 1 nM
13 | CC(C)CNc1cc(-c2ccc3ncccc3c2)nn2c(-c3ccc(C(=O)NC4CC4)cc3)cnc12 [Example 144, N-cyclopropyl-4-{8-[(2-methylpropyl)amino]-6-(quinolin-6-yl)imidazo [1,2-b]pyridazin-3-yl} benzamide] | 2.3 nM
14 | CCNC(=O)c1ccc(-c2cnc3c(NCCC(F)(F)F)cc(Oc4ccccc4C)nn23)cc1C [Example 601, N-ethyl-2-methyl-4-{6-(2-methylphenoxy)-8-[(3,3,3-trifluoropropyl)a-mino]imidazo[1,2-b]pyridazin-3-yl}benzamide] | < 1 nM
15 | Cc1cc(-c2cnc3c(NCCC(F)(F)F)cc(Oc4cccc(F)c4)nn23)ccc1C(=O)O [Example 550, 4-{6-(3-fluorophenoxy)-8-[(3,3,3-trifluoropropyl)amino]imidazo[1,2-b]pyridazin-3-yl}-2-methylbenzoic acid] | 0.5 nM
16 | Cc1cc(-c2cnc3c(NCC(C)(C)O)cc(-c4cccn4C)nn23)ccc1C(=O)NC1CC1 [Example 161, N-cyclopropyl-4-{8-[(2-hydroxy-2-methylpropyl)amino]-6-(1-methyl-1H-pyrrol-2-yl)imidazo[1,2-b]pyridazin-3-yl}-2-methylbenzamide] | 6.2 nM
17 | CC(C)CNc1cc(Cl)nn2c(-c3ccc(C(=O)NC(C)C)cc3)cnc12 [Example 179, 4-{6-Chloro-8-[(2-methylpropyl)amino]imidazo[1,2-b]pyridazin-3-yl}-N-(propan-2-yl)benzamide] | 601 nM
18 | CC(C)CNc1cc(-c2ccc(C(N)=O)cc2)nn2c(-c3ccc(C(=O)NC4CC4)cc3)cnc12 [Example 113, 4-{6-(4-Carbamoylphenyl)-8-[(2-methylpropyl)amino]imidazo[1,2-b]pyridazin-3-yl}-N-cyclopropylbenzamide] | 2 nM
19 | Cc1cc(-c2cnc3c(NCC(C)C)cc(SCC4CCCO4)nn23)ccc1C(=O)NC1CC1 (racemic) [Example 194, (RS)—N-cyclopropyl-2-methyl-4-{8-[(2-methylpropyl)amino]-6-[(tetrahydrofuran-2-ylmethyl)sulfanyl]imidazo[1,2-b]pyridazin-3-yl}benzamide] | 2.5 nM
20 | Cc1cc(-c2cnc3c(NCCO)cc(Oc4cccc(F)c4)nn23)ccc1C(=O)NC1CC1 [Example 277, N-cyclopropyl-4-{6-(3-fluorophenoxy)-8-[(2-hydroxyethyl)amino]imidazo[1,2-b]pyridazin-3-yl}-2-methylbenzamide] | < 0.1 nM
21 | CCNC(=O)c1ccc(-c2cnc3c(NCCN4CCOCC4)cc(Oc4cc(F)ccc4C)nn23)cc1C [Example 592, N-ethyl-4-[6-(5-fluoro-2-methylphenoxy)-8-{[2-(morpholin-4-yl)ethyl]amino}imidazo[1,2-b]pyridazin-3-yl]-2-methylbenzamide] | 1.5 nM
22 | Cn1nccc1-c1cc(NCCC(F)(F)F)c2ncc(-c3ccc(C(=S)NC4CC4)cc3)n2n1 [Example 45, N-cyclopropyl-4-{6-(1-methyl-1H-pyrazol-5-yl)-8-[(3,3,3-trifluoropropyl)amino]imidazo[1,2-b]pyridazin-3-yl}benzenecarbothioamide] | 1.1 nM
23 | CNC(=O)c1ccc(-c2cnc3c(NCCN4CCOCC4)cc(Oc4ccccc4C)nn23)cc1C [Example 563, N,2-dimethyl-4-[6-(2-methylphenoxy)-8-{[2-(morpholin-4-yl)ethyl]amino}imidazo[1,2-b]pyridazin-3-yl]benzamide] | 4.3 nM

From US9255100B2 (BAYER INTELLECTUAL PROPERTY GMBH, priority 2010, dated 2016)
